From patent US10398751B2, “Pharmaceutical compositions of water soluble peptides with poor solubility in isotonic conditions and methods for their use” (STRONGBRIDGE IRELAND LIMITED, priority 2016, dated 2019)
“And” between values parts separate entries of the source, which are not always exact repeats. Equal values may be shown once. Where a name gives a salt, the structure may show the parent alone. Read-outs that look alike come from different tables or passages of the source.

Tests used:
[1] = Solubility of COR005 acetate in aqueous media with additives at 25° C.; format: physicochemical; settings: read-out: Solubility of COR005 Acetate (mg/ml) at 25° C.
From the text: Table 3 summarizes the solubility values of COR005 acetate in various aqueous media, the effects of additives such as DEX and HPB on the peptide solubility in saline and physiological conditions, as well as the PK profile of IR and MS formulations prepared with these additives in comparison to COR005 without additives as control.
Note that both media (PBS or Saline) contained physiological concentrations of chloride which indicates the incompatibility and salting out of the peptide in the presence of the chloride ion.
The relatively high solubility of COR005 acetate in 5% dextrose (in water) of greater than 500 mg/ml indicates the improved solubility of the peptide in water with dextrose. […] Note that this 1:1 diluted dextrose in saline was used as a vehicle in the IR study of COR005 acetate in rats and minipigs (the DEX:PEP ratio was 5:1).

[2] = Solubility and surface activity in PBS under physiological conditions (37° C.); format: physicochemical; settings: PBS pH 7.4, 37° C., COR005 10 mg/ml
Protocol: Table 6 summarizes the effects of additives on the surface activity profile of COR005 acetate under physiological conditions (37° C.) that emulate the release of COR005 at the injection site.

[3] = Density, pH and surface tension of solutions (capillary method); format: physicochemical
Protocol: Tween 80 was used as a control surfactant for comparison. Densities were measured on 1 mL fixed volume samples. […] The effect of veldoreotide acetate on the pH of double distilled water (DDW) was the same at all veldoreotide acetate concentrations. The pH of DDW of 5.0 was reduced to pH 4.5. The effect of veldoreotide acetate on the density of DDW (starting density of DDW was 1.003 g/ml) was concentration dependent from 1.4 mg/ml to 21.5 mg/ml with density ranging from 0.986 to 0.998 g/ml respectively. However, at veldoreotide acetate concentrations of 45 and 102 mg/ml the density was increased above the starting density of DDW. […] The effect of veldoreotide acetate on the surface tension of DDW (starting surface tension was 64.9 dyne/cm) was consistent with veldoreotide acetate behaving as a peptide amphiphile (surfactant). The surface tension of DDW was reduced by veldoreotide acetate at maximum from 64.9 to 45 dyne/cm. In order to elucidate the meaning of this effect, Tween 80 was used as a reference surfactant. Other surfactants include Polexamer 188. The reduction of surface tension induced by Tween 80 was in the range of 40% (from 64.9 dyne/cm to about 39 dyne/cm), in comparison to veldoreotide acetate of 30% (from 64.9 dyne/cm to about 45 dyne/cm). Note that, under these experimental conditions; the effect of Tween 80 indicated a concentration-effect relationship. Whereas, the effect of veldoreotide acetate on the reduction of surface tension was at the same range for all concentrations tested.
The data of table 4 show the surface activity of highly concentrated COR005 acetate (200 mg/ml), with or without additives in WFI, which emulates the preparation conditions of the primary emulsion of the microspheres. The results of Test 1 and 2 (Table 4) show the effect of COR005 acetate on the surface tension of water. When COR005 acetate is dissolved in water the surface tension is reduced by about 36%, from 68.5 dyne/cm for the water alone to 44 dyne/cm for the solution of water with CR005 acetate at 200 mg/ml.

in vivo = experiment: in vivo; design: species or system rats; settings: Sprague-Dawley, rat, sc
Protocol: The lactic acid vehicle for use in the formulations as shown in Table 7 below was prepared as follows: Formulations for injection into rats were prepared as summarized in Table 8. Subject rats (mean weight of about 370 grams per subject) were injected according to the above dosing schedule in groups of 5 rats per treatment. Baseline tail bleed samples were drawn from the rats at 2 days prior to dosing. […] Blood samples were approximately 300 uL of whole blood collected in commercial K3 EDTA-coated tubes. Subject rats were also observed for injection site reactions for up to 5-7 days post-dosing. Blood samples were kept on ice following collection until the time of centrifugation. Blood samples were processed within 60 minutes from blood collection. Samples were centrifuged at 3000 G for 15 minutes in a refrigerated centrifuge (5° C.). Plasma was withdrawn from the tubes after centrifugation and placed into new, appropriately labeled tubes and stored at −65° C. to −80° C. until transfer. […] Veldoreotide acetate standard was serially diluted with methanol:water (1:9) and added to blank rat plasma to generate calibration standards and QC samples. The calibration samples were stored at −70° C. Frozen samples were then thawed to room temperature. Blank plasma and reagent blank (water) were also prepared. For each 100 uL aliquot of sample, calibrator or QC sample, 25 uL (˜100 ng/mL) of internal standard (octreotide acetate) in methanol:water (1:9) and 600 uL of acetonitrile:formic acid (99:1) were added and the samples vortex mixed for 30 seconds. Samples were diluted by mixing 20 uL of plasma sample with 180 uL of blank plasma and aliquotted at 100 uL prior to addition of the internal standard and acetonitrile:formic acid solutions. Samples were then centrifuged for 10 minutes at 14,000 rpm at 8° C. 450 uL of the upper (organic) layer was then transferred to evaporation tubes and evaporated under nitrogen at about 50° C. Samples were then reconstituted in 200 uL of reconstitution solution (water:acetonitrile:formic acid at 70:30:0.2). Samples were centrifuged for 10 minutes at 4000 rpm at 8° C. 160 uL of each sample was withdrawn and placed in an autosampler vial with conic glass insert and analyzed via LC-MS/MS. Veldoreotide acetate plasma concentrations were then plotted and analyzed using standard pharmacokinetic techniques.

[4] = 1.4 mg/ml in DDW pH 4.5, 25° C.
[5] = 102 mg/ml in DDW pH 4.5, 25° C.
[6] = 200 mg/ml + 50 mg/ml HPBCD in WFI (HPB:PEP 1:4), 5° C.
[7] = 200 mg/ml + 100 mg/ml HPBCD in WFI (HPB:PEP 1:2), 5° C.
[8] = 200 mg/ml in 5% Dextrose in WFI (DEX:PEP 1:8), 5° C.

C[C@@H](O)[C@@H]1NC(=O)[C@H](CCCCN)NC(=O)[C@@H](Cc2c[nH]c3ccccc23)NC(=O)[C@H](Cc2c[nH]c3ccccc23)NC(=O)[C@H](Cc2ccccc2)NC(=O)CCCNC(=O)CCCN(CC(N)=O)C(=O)[C@H](Cc2ccccc2)NC1=O [Veldoreotide Acetate, Cyclo(-γ-aminobutyryl-L-phenylalanyl-L-tryptophanyl-D-tryptophanyl-L-lysyl-L-threonyl-L-phenylalanyl-N-carbamoylmethyl-γ-aminobutyryl), acetate salt]
solubility ([1]; 0.45% NaCl with […] dextrose (isotonic), Isotonic 0.45NS (0.45% NaCl) 2.5D Dextrose […], DEX:PEP 5:1): 6 to 7 mg/mL
solubility ([1]; 0.45% NaCl, 0.45NS - 0.45% NaCl, additives none): 3 mg/mL
solubility ([1]; 5% dextrose in water (isotonic), 5% Dextrose Isotonic, additives none): ≥ 300 mg/mL
solubility ([1]; isotonic PBS pH 7.4, pH 7.4, PBS pH 7.4 Isotonic, HPB:PEP 1:1): 4.5 mg/mL
solubility ([1]; isotonic PBS pH 7.4, pH 7.4, PBS pH 7.4 Isotonic, HPB:PEP 1:4): 2.5 mg/mL
solubility ([1]; isotonic PBS pH 7.4, pH 7.4, PBS pH 7.4 Isotonic, HPB:PEP 10:1): 10 mg/mL
solubility ([1]; isotonic PBS with HPB, pH 7.4, PBS pH 7.4 Isotonic, HPB:PEP 1:2): 2.5 mg/mL
solubility ([1]; isotonic PBS with dextrose, pH 7.4, PBS pH 7.4 Isotonic, DEX:PEP 1:8): 2 mg/mL
solubility ([1]; isotonic PBS with dextrose, pH 7.4, PBS pH 7.4 Isotonic, DEX:PEP 5:1): 1.6 mg/mL
solubility ([1]; isotonic saline, Saline Isotonic, HPB:PEP 15:1): 10 mg/mL
solubility ([1]; isotonic saline, Saline Isotonic, Lys-HCl:PEP 4:1): 1.7 mg/mL
solubility ([1]; lactic acid buffer pH 4.0, isotonic, pH 4, Lactic acid buffer pH 4.0 Isotonic, MAN:PEP 20:1, HPB:PEP 15:1, Est. = estimated by UV-Vis): 500 mg/mL
solubility ([1]; lactic acid buffer pH 4.0, isotonic, pH 4, Lactic acid buffer pH 4.0 Isotonic, Mannitol MAN:PEP 20:1, Est. = estimated by UV-Vis): 500 mg/mL
solubility ([1]; normal saline (0.9% NaCl), NS - 0.9% NaCl, additives none): 1 to 2 mg/mL
solubility ([1]; water, additives none): ≥ 300 mg/mL
Surface tension (dyne/cm) ([2]; HPB:PEP 1:4): 39 dyne/cm
Surface tension (dyne/cm) ([2]; no additive): 34 dyne/cm
% change in surface tension compared to baseline [3, 4]: −30%
Density (g/ml) Weighted 1 ml [3, 4]: 0.986 g/mL
Surface tension (dyne/cm) capillary method [3, 4]: 45.2 dyne/cm
density of DDW solution ([3]; 1.4 mg/ml to 21.5 mg/ml, starting density of DDW 1.003 g/ml): 0.986 to 0.998 g/mL
% change in surface tension compared to baseline ([3]; 12 mg/ml in DDW pH 4.5, 25° C.): −28%
Density (g/ml) Weighted 1 ml ([3]; 12 mg/ml in DDW pH 4.5, 25° C.): 0.994 g/mL
Surface tension (dyne/cm) capillary method ([3]; 12 mg/ml in DDW pH 4.5, 25° C.): 46.9 dyne/cm
% change in surface tension compared to baseline ([3]; 21 mg/ml in DDW pH 4.5, 25° C.): −27%
Density (g/ml) Weighted 1 ml ([3]; 21 mg/ml in DDW pH 4.5, 25° C.): 0.998 g/mL
Surface tension (dyne/cm) capillary method ([3]; 21 mg/ml in DDW pH 4.5, 25° C.): 47.1 dyne/cm
% change in surface tension compared to baseline ([3]; 45 mg/in DDW pH 4.5, 25° C.): −29%
Density (g/ml) Weighted 1 ml ([3]; 45 mg/in DDW pH 4.5, 25° C.): 1.003 g/mL
Surface tension (dyne/cm) capillary method ([3]; 45 mg/in DDW pH 4.5, 25° C.): 45.97 dyne/cm
% change in surface tension compared to baseline [3, 5]: −24%
Density (g/ml) Weighted 1 ml [3, 5]: 1.015 g/mL
Surface tension (dyne/cm) capillary method [3, 5]: 49.3 dyne/cm
% change in surface tension compared to baseline [3, 6]: −34%
Density (g/ml) Weighted 1 ml [3, 6]: 1.04 g/mL
Surface tension (dyne/cm) capillary method [3, 6]: 45 dyne/cm
% change in surface tension compared to baseline [3, 7]: −26%
Density (g/ml) Weighted 1 ml [3, 7]: 1.12 g/mL
Surface tension (dyne/cm) capillary method ([3]; 200 mg/ml + 100 mg/ml HPBCD in WFI (HPB:PEP 1:2), 5° C., acetate salt): 51 dyne/cm
Surface tension (dyne/cm) capillary method ([3]; 200 mg/ml + 100 mg/ml HPBCD in WFI (HPB:PEP 1:2), 5° C., listed as peptide, acetate salt): 52 dyne/cm and 51 dyne/cm
% change in surface tension compared to baseline [3, 8]: −14%
Density (g/ml) Weighted 1 ml [3, 8]: 1.03 g/mL
Surface tension (dyne/cm) capillary method ([3]; 200 mg/ml in 5% Dextrose in WFI (DEX:PEP 1:8), 5° C., acetate salt): 54 dyne/cm
Surface tension (dyne/cm) capillary method ([3]; 200 mg/ml in 5% Dextrose in WFI (DEX:PEP 1:8), 5° C., listed as peptide, acetate salt): 54 dyne/cm
Density (g/ml) Weighted 1 ml ([3]; 200 mg/ml in WFI, 5° C.): 1.03 g/mL
Surface tension (dyne/cm) capillary method ([3]; 200 mg/ml in WFI, 5° C.): 44 dyne/cm
% change in surface tension compared to baseline ([3]; 200 mg/ml in WFI, 5° C., acetate salt): −36%
% change in surface tension compared to baseline ([3]; 200 mg/ml in WFI, 5° C., listed as COR005 acetate, acetate salt): about 36%
surface tension of DDW solution ([3]; DDW pH 5.0, 25° C., baseline 64.9 dyne/cm (text summary, concentration not specified), acetate salt): about 45 dyne/cm
reduction of surface tension of water ([3]; DDW, 25° C., baseline 64.9 dyne/cm, acetate salt): 30%
pH of DDW solution ([3]; all concentrations, DDW pH 5.0 before): 4.5
Cmax (in vivo; 3 mg/kg, Rats Cmax (ng/ml)): 544 ng/mL
bioavailability (in vivo; 3 mg/kg, pH 4, Rats BA (F %)): 83%
Cmax (in vivo; 3 mg/kg, pH 4, Rats Cmax (ng/ml)): 345 ng/mL
bioavailability (in vivo; […], Rats BA (F %)): 82%
bioavailability (in vivo; pH 4, Rats BA (F %)): 70%
Cmax (in vivo; pH 4, Rats Cmax (ng/ml)): 350 ng/mL
